Data: patent US10322032B2, “Absorbent article comprising a fragrance or odor control composition” (The Procter & Gamble Company, priority 2013, dated 2019)

Legend:
[1] = log P, n-octanol/water partition coefficient (EPA OPPTS 830.7550 shake flask method); type: physicochemical; conditions: partitioning between octanol and water; for logP: n-octanol/water
Description: The use of log P values is well known in the chemical arts as representing the relative affinity that a material has for partitioning between octanol and water, so that a material that partitions more readily into octanol would tend to be more lipophillic and have a higher log P value than a material that partitions less readily into octanol. […] 1996, under the title “Product Properties Test Guidelines—OPPTS 830.7550 Partition Coefficient (n-Octanol/Water), Shake flask method.” which description is incorporated herein by reference. In following this EPA method in all instances where a recommended procedure is described (such as number of rotations of the shaker) the recommended procedure should be followed. For the analytical determination of the substance in the two phases a skilled person will know what analytical method to use, gas chromatography (GC) can be preferably used, while HPLC can be used in case GC is not suitable.

[2] = Kovats Retention Index by gas chromatography on DB-5 column against n-alkane standards; type: physicochemical; conditions: GC, non-isothermal, C8-C22 n-alkane standards
Description: Kovats Index as it is known in the art, is defined as the selective retention of perfume raw materials (PRMs) onto chromatographic columns based on the retention volume of the substance with respect to that to a homologous series of n-alkane standards.
The Kovats Index in the present application can be experimentally derived using an Agilent Technologies 6890 gas chromatogram with Flame Ionization Detector (FID), or equivalent using a DB-5 (5% phenyl-methylpolysiloxane) column 30 m×0.25 mm i.d., with a 0.25 micron film thickness available from Agilent Technologies. Chromatographic conditions are 1 mL/min of helium carrier with constant flow programming, a temperature program of 50° C. to 300° C. at […] temperature 350° C., split injection at 300° C. Different chromatographic conditions may be required to achieve separation of the analytes of interest and can be readily adjusted by one skilled in the art. A linear alkane hydrocarbon standard mix (C8-C22 available from Aldrich Chemical Company or equivalent) is injected and the retention time for each component is recorded. The test sample (appropriately diluted in a suitable solvent) is injected under the same conditions, and the retention time for each component of interest is recorded. The Kovats Index under non-isothermal conditions is calculated for each component of interest in the test sample using the equation: KI=100n+100[(tsubstance−tn)/(tn+1−tn)] Where: • t=the uncorrected retention time of a peak • unknown=the peak of interest • n=the number of carbon atoms in the smaller alkane whose peak is adjacent to the peak of interest

Row | Structure (SMILES) | logP [1] | KI (Kovats Retention Index) [2] | Log P [1]
1 | CCCCC(CC)COC(=O)c1ccccc1O (stereo not shown) [2-Ethylhexyl salicylate] | 4.92 | 1889.5 | –
2 | O=C(OCc1ccccc1)c1ccccc1O [Benzyl salicylate] | 3.56 | 1920.3 | –
3 | CCCCOC(=O)c1ccccc1O [Butyl salicylate] | 3.58 | 1572.9 | –
4 | O=C(OC1CCCCC1)c1ccccc1O [Cyclohexyl salicylate] | 4.15 | 1821 | –
5 | O=C1CCCCCCCCCCCCCCO1 [Exaltolide] | 4.81 | 1882 | –
6 | O=C1CCCCCCCCC/C=C/CCCO1 [Habanolide] | – | 1862.9 | 4.32
7 | CCC(=O)OCC(C)(C)OC(C)C1CCCC(C)(C)C1 (stereo not shown) [Helvetolide] | – | 1773 | 5.56
8 | CC(C)CCOC(=O)c1ccccc1O [Isoamyl salicylate] | 3.74 | 1616.4 | –
9 | O=C(Oc1ccccc1)c1ccccc1O [Phenyl salicylate] | 3.49 | 1851.1 | –
10 | CC(C)=CCOC(=O)c1ccccc1O [Prenyl salicylate] | 3.05 | 1655.3 | –
11 | CCCCCOC(=O)c1ccccc1O [amyl salicylate] | 4.09 | 1668.8 | –
12 | CCCCCCOC(=O)c1ccccc1O [n-Hexyl salicylate] | 4.58 | 1765.1 | –
13 | Cc1ccc(OC(=O)c2ccccc2O)cc1 [p-Cresyl salicylate] | 4.06 | 1944.5 | –
14 | O=C1CCCCC/C=C/CCCCCCCCO1 [trans-ambrettolide] | – | 1961.1 | 4.64
